Drawing on ChEMBL document CHEMBL4602620, “N,O-Dialkyl deoxynojirimycin derivatives as CERT START domain ligands” (Bioorg Med Chem Lett, 2020), this text covers inhibition for six molecules.

Each structure is given as a SMILES string.

For test [1], the target named is T1, Ceramide transfer protein (Homo sapiens) (UniProt Q9Y5P4).
T1 sequence (whole entry): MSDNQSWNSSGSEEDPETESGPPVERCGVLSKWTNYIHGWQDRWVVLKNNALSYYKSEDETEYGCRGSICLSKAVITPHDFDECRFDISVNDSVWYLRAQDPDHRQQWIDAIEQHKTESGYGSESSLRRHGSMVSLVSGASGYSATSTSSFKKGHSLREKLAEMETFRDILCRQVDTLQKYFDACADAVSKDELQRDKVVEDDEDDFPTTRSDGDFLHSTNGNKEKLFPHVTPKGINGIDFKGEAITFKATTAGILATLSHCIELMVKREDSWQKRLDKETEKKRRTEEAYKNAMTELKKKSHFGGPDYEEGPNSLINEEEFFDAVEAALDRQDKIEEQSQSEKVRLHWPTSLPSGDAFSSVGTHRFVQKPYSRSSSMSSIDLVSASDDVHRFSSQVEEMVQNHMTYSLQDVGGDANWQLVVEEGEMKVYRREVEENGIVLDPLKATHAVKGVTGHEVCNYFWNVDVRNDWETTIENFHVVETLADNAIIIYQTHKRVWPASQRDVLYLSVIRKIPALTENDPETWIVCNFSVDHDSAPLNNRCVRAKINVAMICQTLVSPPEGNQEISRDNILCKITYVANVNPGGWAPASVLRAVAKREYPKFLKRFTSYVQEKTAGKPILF
Description: Displacement of fluorescent tagged ceramide from immobilized His-tagged CERT START domain (unknown origin) assessed as reduction in residual fluorescence activity by FLINT assay relative to control. On the set-up: concentration or dose not given beside the values. As to conditions: concentration not given here.

For another test, the system named is Saccharomyces cerevisiae. Description: Inhibition of Saccharomyces cerevisiae alpha-glucosidase at 0.2 mM relative to control.
The subject of the next test is Prunus dulcis. Description: Inhibition of almond beta-glucosidase at 0.2 mM relative to control.
The test system of another test is Aspergillus niger. Nature of the test: Inhibition of Aspergillus niger amyloglucosidase at 0.2 mM relative to control.

As a reminder, the inhibition is the relative decrease from the control value, in per cent. Regarding `CCCCCCCCCCCCO[C@H]1CN(CCCCCCCCCCCC)[C@H](CO)[C@@H](O)[C@@H]1O`, the inhibition worked out at 40% in test [1], 5.1% in the test with Saccharomyces cerevisiae, 0.65% in the test with Prunus dulcis and 6% in the test on Aspergillus niger.

`CCCCCCCCCCCCO[C@H]1CN(CCCCCCCCCCCC)C[C@@H](O)[C@@H]1O`: the inhibition in test [1] amounted to 25%.

For `CCCCCCCCCCCCN1C[C@H](O)[C@@H](O)[C@H](O)[C@H]1CO`, the inhibition in test [1] came to 25%; in the test with Saccharomyces cerevisiae it was 13%; in the test with Prunus dulcis it was 39%; with Aspergillus niger, 88%.

For the molecule `CCCCCCCCCCCCO[C@H]1[C@H](O)[C@@H](O)CN(CCCCCCCCCCCC)[C@@H]1CO`, the inhibition came to 20% in test [1], 7.3% in the test with Saccharomyces cerevisiae, 1.7% with Prunus dulcis and 11% with Aspergillus niger.

As for `CCCCCCCCCCCC(=O)N[C@@H](CO)C[C@H](O)c1ccccc1`, in test [1], the inhibition was found to be 25%.

On to `CCCCCCCCCCCCC/C=C/[C@@H](O)[C@H](CO)NC(=O)CCCCCCCCCCCCCCC`, for which the inhibition in test [1] came out at 25%.
